In patent US20130102631A1, “NOVEL MICROBIOCIDAL DIOXIME ETHER DERIVATIVES” (SYNGENTA CROP PROTECTION LLC, priority 2010, published 2013):

Tests used:
[1] = tested on: Mycosphaerella graminicola (Septoria tritici); assay: Mycosphaerella graminicola (Septoria tritici) / liquid culture (Septoria blotch); format: cell-based; settings: Zymoseptoria tritici; at ≦200 ppm, liquid culture PDB, inhibition of growth photometrically 4-5 days after application; read-out: control of Mycosphaerella graminicola
Glomerella lagenarium = Glomerella lagenarium (Colletotrichum lagenarium) / liquid culture (anthracnose); format: cell-based; settings: Colletotrichum orbiculare; at ≦200 ppm, liquid culture PDB, inhibition of growth photometrically 3-4 days after application; read-out: control of Glomerella lagenarium
Outline: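 Glomerella lagenarium conidia in potato dextrose broth added to test compound supplied in DMSO in microtiter wells. Plates incubated at 24° C.; growth inhibition measured photometrically 3-4 days after application.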

Gaeumannomyces graminis = Gaeumannomyces graminis / liquid culture (take-all of cereals); format: cell-based; settings: at ≦200 ppm, liquid culture PDB, inhibition of growth photometrically 4-5 days after application, read-out: control of Gaeumannomyces graminis
Outline: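 Mycelial fragments of the fungus in potato dextrose broth were added to wells containing compound in DMSO. Plates were incubated at 24° C, and growth inhibition was read photometrically 4-5 days after application.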

[2] = tested on: Phaeosphaeria nodorum (Septoria nodorum); assay: Phaeosphaeria nodorum (Septoria nodorum) / wheat / leaf disc preventative (glume blotch); format: in vivo; settings: Parastagonospora nodorum, foliar, wheat leaf segments cv Kanzler, inoculated 2 days after application, assessed 5-7 days after application
Outline: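 Wheat cv Kanzler leaf segments on agar were sprayed with formulated compound at 200 ppm and inoculated with spores 2 days later. Incubation at 20 °C, 75% RH, 12/12 h light/dark; percent disease control versus untreated scored 5–7 days after application.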

[3] = tested on: Puccinia recondita f. sp. tritici; assay: Puccinia recondita f. sp. tritici / wheat / leaf disc preventative (brown rust); format: in vivo; settings: foliar, wheat leaf segments cv Kanzler, inoculated 1 day after application, assessed 7-9 days after application
Description: Puccinia recondita f. sp. Tritici/Wheat/Leaf Disc Preventative (Brown Rust): Wheat leaf segments cultivated variety (cv) Kanzler were placed on agar in 24-well plates and sprayed with formulated test compound diluted in water at an application rate of 200 ppm. The leaf disks were inoculated with a spore suspension of the fungus 1 day after application. The inoculated leaf segments were incubated at 19° C. and 75% relative humidity under a light regime of 12/12 h (light/dark) in a climate cabinet and the activity of a compound was assessed as percent disease control compared to untreated when an appropriate level of disease damage appears in untreated check leaf segments (7-9 days after application). […]-2.508; 5.561; 2.561; 2.513; 2.559; 2.556; 2.555; 2.374; 2.544; 2.537; 2.530; 2.525 (fraction B); 2.519; 2.516; 2.514; E/E-5.167; E/E-3.002; 2.512; E/E-2.507

[4] = tested on: Mycosphaerella arachidis (Cercospora arachidicola); assay: Mycosphaerella arachidis (Cercospora arachidicola) / liquid culture (early leaf spot); format: cell-based; settings: at ≦200 ppm, liquid culture PDB, inhibition of growth photometrically 4-5 days after application, read-out: control of Mycosphaerella arachidis
Outline: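 Cryostored Cercospora arachidicola conidia were mixed into potato dextrose broth and added to test compound in DMSO. Incubation was at 24° C. Growth inhibition was read photometrically 4-5 days after application.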

[5] = tested on: Thanatephorus cucumeris (Rhizoctonia solani); assay: Thanatephorus cucumeris (Rhizoctonia solani) / liquid culture (foot rot, damping-off); format: cell-based; settings: at ≦200 ppm, liquid culture PDB, inhibition of growth photometrically 3-4 days after application, read-out: control of Thanatephorus cucumeris
Description: Thanatephorus cucumeris (Rhizoctonia solani)/Liquid Culture (Foot Rot, Damping-Off Mycelia fragments of a newly grown liquid culture of the fungus are directly mixed into nutrient broth (PDB potato dextrose broth). After placing a DMSO solution of the test compounds into a 96-well microtiter, the nutrient broth containing the fungal material was added. The test plates were incubated at 24° C. and the inhibition of growth was determined photometrically 3-4 days after application. […]-2.508 5.561; 2.561; P.57; 2.513; 2.559; 2.558; 2.553; 2.533; 2.530; 2.526; 2.519; 2.517; 2.516; 2.514; 2.512; 2.514

COc1cccc(/C(C)=N/OCC(C)(C)CO/N=C2\CCCc3ccc(C)nc32)n1 [Compound 2.374]
≥ 80%: inhibition of growth at up to 200 µg/mL [1] | inhibition of growth at up to 200 µg/mL (Glomerella lagenarium) | inhibition of growth at up to 200 µg/mL (Gaeumannomyces graminis) | pest or weed control at 200 ppm [2] | pest or weed control at 200 ppm [3] | inhibition of growth at up to 200 µg/mL [4]

C/C(=N\OCC(C)(C)CO/N=C1\CCCc2ccc(C)nc21)c1ccc2ccccc2n1 [Compound 2.512]
≥ 80%: inhibition of growth at up to 200 µg/mL [1] | inhibition of growth at up to 200 µg/mL (Glomerella lagenarium) | inhibition of growth at up to 200 µg/mL (Gaeumannomyces graminis) | pest or weed control at 200 ppm [2] | pest or weed control at 200 ppm [3] | inhibition of growth at up to 200 µg/mL [4] | inhibition of growth at up to 200 µg/mL [5]

C/C(=N\OCC(C)(C)CO/N=C1\CCCc2ccc(C)nc21)c1ccc2c(n1)CCCC2 [Compound 2.513]
≥ 80%: inhibition of growth at up to 200 µg/mL [1] | inhibition of growth at up to 200 µg/mL (Glomerella lagenarium) | inhibition of growth at up to 200 µg/mL (Gaeumannomyces graminis) | pest or weed control at 200 ppm [2] | pest or weed control at 200 ppm [3] | inhibition of growth at up to 200 µg/mL [4] | inhibition of growth at up to 200 µg/mL [5]

C/C(=N\OCCCO/N=C1\CCCc2ccc(C)nc21)c1cccc(-c2ccccc2)n1 [Compound 2.514]
≥ 80%: inhibition of growth at up to 200 µg/mL [1] | inhibition of growth at up to 200 µg/mL (Glomerella lagenarium) | inhibition of growth at up to 200 µg/mL (Gaeumannomyces graminis) | pest or weed control at 200 ppm [2] | pest or weed control at 200 ppm [3] | inhibition of growth at up to 200 µg/mL [4] | inhibition of growth at up to 200 µg/mL [5]

CC/C(=N\OCC(C)(C)CO/N=C1\CCCc2ccc(C)nc21)c1ccccn1 [Compound 2.516]
≥ 80%: inhibition of growth at up to 200 µg/mL [1] | inhibition of growth at up to 200 µg/mL (Glomerella lagenarium) | inhibition of growth at up to 200 µg/mL (Gaeumannomyces graminis) | pest or weed control at 200 ppm [2] | pest or weed control at 200 ppm [3] | inhibition of growth at up to 200 µg/mL [4] | inhibition of growth at up to 200 µg/mL [5]

C/C(=N/OCC(C)(C)CO/N=C1\CCCc2ccc(C)nc21)c1ccccn1 [Compound 2.519]
≥ 80%: inhibition of growth at up to 200 µg/mL [1] | inhibition of growth at up to 200 µg/mL (Glomerella lagenarium) | inhibition of growth at up to 200 µg/mL (Gaeumannomyces graminis) | pest or weed control at 200 ppm [2] | pest or weed control at 200 ppm [3] | inhibition of growth at up to 200 µg/mL [4] | inhibition of growth at up to 200 µg/mL [5]

Cc1ccc2c(n1)/C(=N/OCC(C)(C)CO/N=C/c1cccc(Oc3ccccc3)n1)CCC2 [Compound 2.530]
≥ 80%: inhibition of growth at up to 200 µg/mL [1] | inhibition of growth at up to 200 µg/mL (Glomerella lagenarium) | pest or weed control at 200 ppm [2] | pest or weed control at 200 ppm [3] | inhibition of growth at up to 200 µg/mL [4] | inhibition of growth at up to 200 µg/mL [5]

Cc1ccc(O)c(/C=N/OCC(C)(C)CO/N=C2\CCCc3ccc(C)nc32)n1 [Compound 2.533]
≥ 80%: inhibition of growth at up to 200 µg/mL [1] | inhibition of growth at up to 200 µg/mL (Glomerella lagenarium) | inhibition of growth at up to 200 µg/mL (Gaeumannomyces graminis) | pest or weed control at 200 ppm [2] | inhibition of growth at up to 200 µg/mL [4] | inhibition of growth at up to 200 µg/mL [5]

C/C(=N\OCC(C)(C)CO/N=C1\CCCc2ccc(Cl)nc21)c1cc(C)cc(C)n1 [Compound 2.555]
≥ 80%: inhibition of growth at up to 200 µg/mL [1] | inhibition of growth at up to 200 µg/mL (Glomerella lagenarium) | inhibition of growth at up to 200 µg/mL (Gaeumannomyces graminis) | pest or weed control at 200 ppm [2] | pest or weed control at 200 ppm [3] | inhibition of growth at up to 200 µg/mL [4]

C/C(=N\OCC(C)(C)CO/N=C1\CCCc2ccc(Oc3ccccc3)nc21)c1cc(C)cc(C)n1 [Compound 2.556]
≥ 80%: inhibition of growth at up to 200 µg/mL [1] | inhibition of growth at up to 200 µg/mL (Glomerella lagenarium) | inhibition of growth at up to 200 µg/mL (Gaeumannomyces graminis) | pest or weed control at 200 ppm [2] | pest or weed control at 200 ppm [3] | inhibition of growth at up to 200 µg/mL [4]

C/C(=N\OCC(C)(C)CO/N=C1\CCCc2ccc(-c3cccc(C)n3)nc21)c1cc(C)cc(C)n1 [Compound 2.559]
≥ 80%: inhibition of growth at up to 200 µg/mL [1] | inhibition of growth at up to 200 µg/mL (Glomerella lagenarium) | inhibition of growth at up to 200 µg/mL (Gaeumannomyces graminis) | pest or weed control at 200 ppm [2] | pest or weed control at 200 ppm [3] | inhibition of growth at up to 200 µg/mL [4] | inhibition of growth at up to 200 µg/mL [5]

C/C(=N\OCC(C)(C)CO/N=C1\CCCc2c1nc1ccccc1c2C)c1cc(C)cc(C)n1 [Compound 2.561]
≥ 80%: inhibition of growth at up to 200 µg/mL [1] | inhibition of growth at up to 200 µg/mL (Glomerella lagenarium) | inhibition of growth at up to 200 µg/mL (Gaeumannomyces graminis) | pest or weed control at 200 ppm [2] | pest or weed control at 200 ppm [3] | inhibition of growth at up to 200 µg/mL [4] | inhibition of growth at up to 200 µg/mL [5]

C/C(=N\OCC1(CO/N=C2\CCCc3c2nc2ccccc2c3C)CC1)c1cc(C)cc(C)n1 [Compound 5.561]
≥ 80%: inhibition of growth at up to 200 µg/mL [1] | inhibition of growth at up to 200 µg/mL (Glomerella lagenarium) | inhibition of growth at up to 200 µg/mL (Gaeumannomyces graminis) | pest or weed control at 200 ppm [2] | pest or weed control at 200 ppm [3] | inhibition of growth at up to 200 µg/mL [4] | inhibition of growth at up to 200 µg/mL [5]

C/C(=N\OCC(C)(C)CO/N=C1\CCCc2ccc(C)nc21)c1cccc(C)n1 [E/E-2.002]
≥ 80%: inhibition of growth at up to 200 µg/mL [1] | inhibition of growth at up to 200 µg/mL (Glomerella lagenarium) | inhibition of growth at up to 200 µg/mL (Gaeumannomyces graminis) | pest or weed control at 200 ppm [2] | pest or weed control at 200 ppm [3] | inhibition of growth at up to 200 µg/mL [4] | inhibition of growth at up to 200 µg/mL [5]

C=C(CO/N=C(\C)c1cccc(C)n1)CO/N=C1\CCCc2ccc(C)nc21 [E/E-3.002]
≥ 80%: inhibition of growth at up to 200 µg/mL [1] | inhibition of growth at up to 200 µg/mL (Glomerella lagenarium) | inhibition of growth at up to 200 µg/mL (Gaeumannomyces graminis) | pest or weed control at 200 ppm [2] | pest or weed control at 200 ppm [3] | inhibition of growth at up to 200 µg/mL [4]

C/C(=N\OCC1(CO/N=C2\CCCc3ccc(C)nc32)CC1)c1cc(C)cc(C)n1 [E/E-5.167]
≥ 80%: inhibition of growth at up to 200 µg/mL [1] | inhibition of growth at up to 200 µg/mL (Glomerella lagenarium) | inhibition of growth at up to 200 µg/mL (Gaeumannomyces graminis) | pest or weed control at 200 ppm [2] | pest or weed control at 200 ppm [3] | inhibition of growth at up to 200 µg/mL [4]
